{"source": "paper PMC5537056", "about": "(Leukemia, 2016)", "type_in_all_cases": "cell-based", "key": {"[1]": {"tested_on": "MM cell lines (RPMI8226, U266, MM1.S, KMS11)", "assay": "Proliferation assays, range over the four MM cell lines", "details": "read-out: GI50, range over MM cell lines"}, "RPMI8226": {"tested_on": "RPMI8226", "assay": "Viability assay by flow cytometry", "details": "read-out: LC50 (Viability); RPMI8226, 48 hrs"}, "[2]": {"tested_on": "MM cell lines (RPMI8226, U266, MM1.S, KMS11)", "assay": "Viability assays, range over the four MM cell lines", "details": "read-out: LC50, range over MM cell lines"}, "U266": {"tested_on": "U266", "assay": "Viability assay by flow cytometry"}, "KMS11": {"tested_on": "KMS11", "assay": "Viability assay by flow cytometry", "details": "read-out: LC50 (Viability); KMS11, 48 hrs"}, "MM1.S": {"tested_on": "MM1.S", "assay": "Viability assay by flow cytometry"}, "PIM2 expression in MM1.S": {"tested_on": "PIM2 expression in MM1.S", "assay": "Western blot of PIM2 protein expression", "details": "IL-6 25 ng/ml"}, "PIM2 expression in U266": {"tested_on": "PIM2 expression in U266", "assay": "Western blot of PIM2 protein expression", "details": "U266, IL-6 25 ng/ml"}, "[3]": {"details": "Homo sapiens, MM1.S, 48 h, read-out: cell viability"}}, "data": [{"compound": "N[C@@H]1CCCN(c2c(/C=C3\\SC(=O)NC3=O)cccc2-c2ccccc2)C1", "note": "[AZD1208]", "values": [{"measurement": "GI50", "setting": "[1]", "value": "0.7 to 4.7", "unit": "µM"}, {"measurement": "CC50", "setting": "RPMI8226", "value": 30, "unit": "µM"}, {"measurement": "CC50", "setting": "[2]", "value": "23 to 56", "unit": "µM"}, {"measurement": "CC50", "setting": "U266; read-out: LC50 (Viability), U266, 48 hrs", "value": 56.6, "unit": "µM"}, {"measurement": "CC50", "setting": "KMS11", "value": 31.3, "unit": "µM"}, {"measurement": "CC50", "setting": "MM1.S; read-out: LC50 (Viability), MM1S, 48 hrs", "value": 23.7, "unit": "µM"}]}, {"compound": "CC(C)C[C@H](NC(=O)[C@H](Cc1ccccc1)NC(=O)c1cnccn1)B(O)O", "note": "[bortezomib]", "values": [{"measurement": "viability at 0.0015 µM", "setting": "MM1.S; [3]", "value": 18, "unit": "%"}]}, {"compound": "C[C@@H]1C[C@H]2[C@@H]3CCC4=CC(=O)C=C[C@]4(C)[C@@]3(F)[C@@H](O)C[C@]2(C)[C@@]1(O)C(=O)CO", "note": "[dexamethasone]", "values": [{"measurement": "viability at 5 µM", "setting": "MM1.S; [3]", "value": 55, "unit": "%"}]}, {"compound": "N[C@@H](Cc1ccc(N(CCCl)CCCl)cc1)C(=O)O", "note": "[melphalan]", "values": [{"measurement": "viability at 4 µM", "setting": "U266; Homo sapiens, U-266, read-out: cell viability", "value": 58, "unit": "%"}, {"measurement": "viability at 2 µM", "setting": "MM1.S; [3]", "value": 36, "unit": "%"}]}, {"compound": "rIL-6: Recombinant IL-6 purchased from R&D Systems", "values": [{"measurement": "upregulation of PIM2", "setting": "PIM2 expression in MM1.S", "value": 3.2, "unit": "fold"}, {"measurement": "upregulation of PIM2", "setting": "PIM2 expression in U266", "value": 1.3, "unit": "fold"}]}]}
